Data as given in US10765114B2, “4-amino-6-(pyridyl and 2-substitutedphenyl)-picolinates and 6-amino-2-(pyridyl and 2-substitutedphenyl)-pyrimidine-4-carboxylates and their use as herbicides” (Dow AgroSciences LLC, priority 2013, dated 2020).

Test system: not given
Test: not given
Conditions: not given
Compound `Cc1c(-c2cc(N)c(Cl)c(C(=O)O)n2)ccc(Cl)c1F` [Compound 52] has a melting point of 160 to 162 °C.

Test system: Key Grass and Sedge Weeds as well as Grass Crops
Test: Post-Emergent Test II (Table 6)
Assay type: in vivo
Conditions: post-emergence, 336 h, CYPSS, 70 g ai/ha, 14 days after application, read-out: Visual Growth Reduction (%) 14 Days After Application CYPSS
Summary of the method: (§1)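 Post-emergence greenhouse spray, 1st-2nd true leaf stage; track sprayer, 187 L/ha; acetone/DMSO stock diluted in aqueous acetone/IPA/DMSO with Atplus 411F and Triton X-155; rates 1× to 1/16×; subirrigated; visual injury 0 (none) to 100% (complete kill) at 14 days.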
`Cc1c(-c2cc(N)c(Cl)c(C(=O)O)n2)ccc(Cl)c1F` [Compound 52] showed a pest or weed control at 70 g/ha of 85 to 94%.

Same assay, conditions: post-emergence, 336 h, CYPSS, 140 g ai/ha, 14 days after application, read-out: Visual Growth Reduction (%) 14 Days After Application CYPSS
`Cc1c(-c2cc(N)c(Cl)c(C(=O)O)n2)ccc(Cl)c1F` [Compound 52] showed a pest or weed control at 140 g/ha of 95 to 100%.

Same assay, conditions: post-emergence, 336 h, DIGSA: crabgrass (Digitaria sanguinalis), 70 g ai/ha, 14 days after application, read-out: Visual Growth Reduction (%) 14 Days After Application DIGSA
`Cc1c(-c2cc(N)c(Cl)c(C(=O)O)n2)ccc(Cl)c1F` [Compound 52] gave a pest or weed control at 70 g/ha of 0 to 29%.

Same assay, conditions: post-emergence, 336 h, DIGSA: crabgrass (Digitaria sanguinalis), 140 g ai/ha, 14 days after application, read-out: Visual Growth Reduction (%) 14 Days After Application DIGSA
`Cc1c(-c2cc(N)c(Cl)c(C(=O)O)n2)ccc(Cl)c1F` [Compound 52] gave a pest or weed control at 140 g/ha of 30 to 44%.

Same assay, conditions: post-emergence, 336 h, ECHSS, 70 g ai/ha, 14 days after application, read-out: Visual Growth Reduction (%) 14 Days After Application ECHSS
Compound `Cc1c(-c2cc(N)c(Cl)c(C(=O)O)n2)ccc(Cl)c1F` [Compound 52] has a pest or weed control at 70 g/ha of 30 to 44%.

Same assay, conditions: post-emergence, 336 h, ECHSS, 140 g ai/ha, 14 days after application, read-out: Visual Growth Reduction (%) 14 Days After Application ECHSS
With `Cc1c(-c2cc(N)c(Cl)c(C(=O)O)n2)ccc(Cl)c1F` [Compound 52] the pest or weed control at 140 g/ha was 45 to 59%.

Same assay, conditions: post-emergence, 336 h, ORYSS (crop), 70 g ai/ha, 14 days after application, read-out: Visual Growth Reduction (%) 14 Days After Application ORYSS
`Cc1c(-c2cc(N)c(Cl)c(C(=O)O)n2)ccc(Cl)c1F` [Compound 52] showed a pest or weed control at 70 g/ha of 0 to 29%.

Same assay, conditions: post-emergence, 336 h, ORYSS (crop), 140 g ai/ha, 14 days after application, read-out: Visual Growth Reduction (%) 14 Days After Application ORYSS
Compound `Cc1c(-c2cc(N)c(Cl)c(C(=O)O)n2)ccc(Cl)c1F` [Compound 52] has a pest or weed control at 140 g/ha of 0 to 29%.

Same assay, conditions: post-emergence, 336 h, SETFA: giant foxtail (Setaria faberi), 70 g ai/ha, 14 days after application, read-out: Visual Growth Reduction (%) 14 Days After Application SETFA
`Cc1c(-c2cc(N)c(Cl)c(C(=O)O)n2)ccc(Cl)c1F` [Compound 52] showed a pest or weed control at 70 g/ha of 0 to 29%.

Same assay, conditions: post-emergence, 336 h, SETFA: giant foxtail (Setaria faberi), 140 g ai/ha, 14 days after application, read-out: Visual Growth Reduction (%) 14 Days After Application SETFA
In the case of `Cc1c(-c2cc(N)c(Cl)c(C(=O)O)n2)ccc(Cl)c1F` [Compound 52], the pest or weed control at 140 g/ha is reported as 45 to 59%.

Same assay, conditions: post-emergence, 336 h, SORVU: grain sorghum (Sorghum vulgare), 70 g ai/ha, 14 days after application, read-out: Visual Growth Reduction (%) 14 Days After Application SORVU
In the case of `Cc1c(-c2cc(N)c(Cl)c(C(=O)O)n2)ccc(Cl)c1F` [Compound 52], the pest or weed control at 70 g/ha is reported as 0 to 29%.

Same assay, conditions: post-emergence, 336 h, SORVU: grain sorghum (Sorghum vulgare), 140 g ai/ha, 14 days after application, read-out: Visual Growth Reduction (%) 14 Days After Application SORVU
With `Cc1c(-c2cc(N)c(Cl)c(C(=O)O)n2)ccc(Cl)c1F` [Compound 52] the pest or weed control at 140 g/ha was 30 to 44%.

Same assay, conditions: post-emergence, 336 h, TRZSS (crop), 70 g ai/ha, 14 days after application, read-out: Visual Growth Reduction (%) 14 Days After Application TRZSS
In the case of `Cc1c(-c2cc(N)c(Cl)c(C(=O)O)n2)ccc(Cl)c1F` [Compound 52], the pest or weed control at 70 g/ha is reported as 45 to 59%.

Same assay, conditions: post-emergence, 336 h, TRZSS (crop), 140 g ai/ha, 14 days after application, read-out: Visual Growth Reduction (%) 14 Days After Application TRZSS
Compound `Cc1c(-c2cc(N)c(Cl)c(C(=O)O)n2)ccc(Cl)c1F` [Compound 52] has a pest or weed control at 140 g/ha of 60 to 74%.

Same assay, conditions: post-emergence, 336 h, ZEAMX: maize, corn (Zea mays), 70 g ai/ha, 14 days after application, read-out: Visual Growth Reduction (%) 14 Days After Application ZEAMX
For `Cc1c(-c2cc(N)c(Cl)c(C(=O)O)n2)ccc(Cl)c1F` [Compound 52], the pest or weed control at 70 g/ha was 45 to 59%.

Same assay, conditions: post-emergence, 336 h, ZEAMX: maize, corn (Zea mays), 140 g ai/ha, 14 days after application, read-out: Visual Growth Reduction (%) 14 Days After Application ZEAMX
In the case of `Cc1c(-c2cc(N)c(Cl)c(C(=O)O)n2)ccc(Cl)c1F` [Compound 52], the pest or weed control at 140 g/ha is reported as 60 to 74%.

Test system: Key Broadleaf Weed and Crop Species
Test: Post-Emergent Test II (Table 5)
Assay type: in vivo
Conditions: Abutilon theophrasti, post-emergence, 336 h, ABUTH: velvetleaf (Abutilon theophrasti), application rate 70 (kg ai/ha; footnote: g ai/ha), read-out: Visual Growth Reduction (%) 14 Days After Application ABUTH
Summary of the method: as §1
For `Cc1c(-c2cc(N)c(Cl)c(C(=O)O)n2)ccc(Cl)c1F` [Compound 52], the pest or weed control at 70 g/ha was 95 to 100%.

Same assay, conditions: Abutilon theophrasti, post-emergence, 336 h, ABUTH: velvetleaf (Abutilon theophrasti), application rate 140 (kg ai/ha; footnote: g ai/ha), read-out: Visual Growth Reduction (%) 14 Days After Application ABUTH
For `Cc1c(-c2cc(N)c(Cl)c(C(=O)O)n2)ccc(Cl)c1F` [Compound 52], the pest or weed control at 140 g/ha was 95 to 100%.

Same assay, conditions: Amaranthus retroflexus, post-emergence, 336 h, AMARE: redroot pigweed (Amaranthus retroflexus), application rate 70 (kg ai/ha; footnote: g ai/ha), read-out: Visual Growth Reduction (%) 14 Days After Application AMARE
Work on `Cc1c(-c2cc(N)c(Cl)c(C(=O)O)n2)ccc(Cl)c1F` [Compound 52] yielded a pest or weed control at 70 g/ha of 95 to 100%.

Same assay, conditions: Amaranthus retroflexus, post-emergence, 336 h, AMARE: redroot pigweed (Amaranthus retroflexus), application rate 140 (kg ai/ha; footnote: g ai/ha), read-out: Visual Growth Reduction (%) 14 Days After Application AMARE
With `Cc1c(-c2cc(N)c(Cl)c(C(=O)O)n2)ccc(Cl)c1F` [Compound 52] the pest or weed control at 140 g/ha was 95 to 100%.

Same assay, conditions: Brassica napus, post-emergence, 336 h, BRSSS: oilseed rape, canola (Brassica napus), application rate 70 (kg ai/ha; footnote: g ai/ha), read-out: Visual Growth Reduction (%) 14 Days After Application BRSSS
`Cc1c(-c2cc(N)c(Cl)c(C(=O)O)n2)ccc(Cl)c1F` [Compound 52] gave a pest or weed control at 70 g/ha of 95 to 100%.

Same assay, conditions: Brassica napus, post-emergence, 336 h, BRSSS: oilseed rape, canola (Brassica napus), application rate 140 (kg ai/ha; footnote: g ai/ha), read-out: Visual Growth Reduction (%) 14 Days After Application BRSSS
In the case of `Cc1c(-c2cc(N)c(Cl)c(C(=O)O)n2)ccc(Cl)c1F` [Compound 52], the pest or weed control at 140 g/ha is reported as 95 to 100%.

Same assay, conditions: Chenopodium album, post-emergence, 336 h, CHEAL: lambsquarters (Chenopodium album), application rate 70 (kg ai/ha; footnote: g ai/ha), read-out: Visual Growth Reduction (%) 14 Days After Application CHEAL
Work on `Cc1c(-c2cc(N)c(Cl)c(C(=O)O)n2)ccc(Cl)c1F` [Compound 52] yielded a pest or weed control at 70 g/ha of 95 to 100%.

Same assay, conditions: Chenopodium album, post-emergence, 336 h, CHEAL: lambsquarters (Chenopodium album), application rate 140 (kg ai/ha; footnote: g ai/ha), read-out: Visual Growth Reduction (%) 14 Days After Application CHEAL
For `Cc1c(-c2cc(N)c(Cl)c(C(=O)O)n2)ccc(Cl)c1F` [Compound 52], the pest or weed control at 140 g/ha was 95 to 100%.

Same assay, conditions: Euphorbia heterophylla, post-emergence, 336 h, EPHHL: wild poinsettia (Euphorbia heterophylla), application rate 70 (kg ai/ha; footnote: g ai/ha), read-out: Visual Growth Reduction (%) 14 Days After Application EPHHL
`Cc1c(-c2cc(N)c(Cl)c(C(=O)O)n2)ccc(Cl)c1F` [Compound 52] gave a pest or weed control at 70 g/ha of 75 to 84%.

Same assay, conditions: Euphorbia heterophylla, post-emergence, 336 h, EPHHL: wild poinsettia (Euphorbia heterophylla), application rate 140 (kg ai/ha; footnote: g ai/ha), read-out: Visual Growth Reduction (%) 14 Days After Application EPHHL
With `Cc1c(-c2cc(N)c(Cl)c(C(=O)O)n2)ccc(Cl)c1F` [Compound 52] the pest or weed control at 140 g/ha was 85 to 94%.

Same assay, conditions: Helianthus annuus, post-emergence, 336 h, HELAN: sunflower (Helianthus annuus), application rate 70 (kg ai/ha; footnote: g ai/ha), read-out: Visual Growth Reduction (%) 14 Days After Application HELAN
In the case of `Cc1c(-c2cc(N)c(Cl)c(C(=O)O)n2)ccc(Cl)c1F` [Compound 52], the pest or weed control at 70 g/ha is reported as 95 to 100%.

Same assay, conditions: Helianthus annuus, post-emergence, 336 h, HELAN: sunflower (Helianthus annuus), application rate 140 (kg ai/ha; footnote: g ai/ha), read-out: Visual Growth Reduction (%) 14 Days After Application HELAN
With `Cc1c(-c2cc(N)c(Cl)c(C(=O)O)n2)ccc(Cl)c1F` [Compound 52] the pest or weed control at 140 g/ha was 95 to 100%.

Same assay, conditions: Viola tricolor, post-emergence, 336 h, VIOTR: wild pansy (Viola tricolor), application rate 70 (kg ai/ha; footnote: g ai/ha), read-out: Visual Growth Reduction (%) 14 Days After Application VIOTR
With `Cc1c(-c2cc(N)c(Cl)c(C(=O)O)n2)ccc(Cl)c1F` [Compound 52] the pest or weed control at 70 g/ha was 85 to 94%.

Same assay, conditions: Viola tricolor, post-emergence, 336 h, VIOTR: wild pansy (Viola tricolor), application rate 140 (kg ai/ha; footnote: g ai/ha), read-out: Visual Growth Reduction (%) 14 Days After Application VIOTR
Work on `Cc1c(-c2cc(N)c(Cl)c(C(=O)O)n2)ccc(Cl)c1F` [Compound 52] yielded a pest or weed control at 140 g/ha of 85 to 94%.
